Drawing on patent publication US9249158B2, “Cytomegalovirus inhibitor compounds” (Boehringer Ingelheim International GmbH, priority 2012, dated 2016), this text covers IC50 for 30 compounds.

Broadly, the pIC50 is the IC50 on a negative log10 scale, so that one unit is a factor of ten.

pIC50: −log10 of the molar value. Read-outs that look alike come from different tables or passages of the source.

The assay has as its target T1, purified recombinant HCMV polymerase (UL54) (Human cytomegalovirus, UniProt P08546).
T1 construct: made in house; host or cells: Sf21 insect cells (baculovirus)
The assay is described as follows: HCMV Polymerase LANCE TR-FRET Assay. It is filed as biochemical. The procedure: The codon optimized UL54 HCMV polymerase gene for expression in insect cells is obtained from DNA 2.0 (Menlo Park, Calif.) and subcloned in 3′ of the Glutathione-S-transferase (GST) gene in a pFastBac-derived vector. Bacmids and baculoviruses are generated and expression performed in Sf21 insect cells cultured in SF900 II SFM media. Infection using the baculoviruses is performed using an MOI of 5-10 and the cells are harvested 48 h post-infection and frozen.
All purification procedures are performed at 4° C. The cell pellet from 1 L of culture (1×10^9 cells) is resuspended in 25 mL of 50 mM Tris pH 7.5, 1 mM TCEP, 0.1 mM EDTA, 150 mM NaCl, 10% Glycerol, 1 mM PMSF, 2 μg/mL Leupeptin, 2 μg/mL Antipain, 2 μg/mL Pepstatin A. The solution is homogenized using a Dounce tissue grinder. Following homogenization, the volume is increased to 40 mL followed by centrifugation at 750×g for 5 min to remove nuclei. The supernatant is then transferred and 3 cc of 50% slurry of glutathione-sepharose 4B resin is added. The mixture is incubated on a rotator for 1 h. The slurry is centrifuged at 500 g for 5 min. The supernatant is discarded and the pellet is resuspended in 10× volume of wash buffer (50 mM Tris pH 7.5, 1 mM TCEP, 0.1 mM EDTA, 150 mM NaCl, 10% Glycerol) and incubated for 5 min. The slurry is centrifuged at 500 g for 5 min and the supernatant is discarded. The wash step is performed 5 times. The elution is performed by adding 1.5 volume of elution buffer (50 mM Tris pH 7.5, 1 mM TCEP, 0.1 mM EDTA, 150 mM NaCl, 10% Glycerol, 20 mM glutathione) and incubating on a rotator for 15 min. The slurry is centrifuged at 500 g for 5 min and the supernatant is removed and kept. The elution step is performed four times. The supernatants are pooled and centrifuged at 500×g for 5 min to remove resin particles and frozen at −80° C.
The frozen protein is thawed and the NaCl concentration reduced to 37.5 mM by the addition of 3 volumes of DEAE buffer A (50 mM Tris pH 7.5, 1 mM TCEP, 0.1 mM EDTA, 10% Glycerol). The protein is loaded on a HiTrap DEAE-Sepharose μF column and eluted using a gradient with DEAE buffer B (50 mM Tris pH 7.5, 1 mM TCEP, 0.1 mM EDTA, 10% Glycerol, 1 M NaCl). UL54 eluted at 140 mM NaCl. The DEAE fractions are pooled, frozen and stored at −80° C. The protein concentration is determined by OD280 (A280=1.03 mg/mL).
This non-radiometric assay determines the enzymatic activity of purified recombinant HCMV polymerase (UL54) using a Digoxigenin-labeled oligonucleotide priming a heteropolymeric template. The enzymatic activity is determined by incorporating Biotin-dUTP in the nascent complementary strand. The signal is generated by Fluorescence Resonance Energy Transfer from the donor (Anti-Digoxigenin-Europium Chelate binding with the primer) to the acceptor Streptavidin-AlloPhycoCyanin (SA-APC) binding to the biotin of the labeled nucleotides incorporated in proximity.
Serial dilutions of the DMSO stock compound solution are performed using DMSO in columns 2-11 and 14-23. DMSO alone is present in columns 1, 12, 13 and 24. The plate is centrifuged at 200×g for 30 sec. 35 μL of compound dilution buffer (10 mM Hepes pH 7.5, 25 mM KCl, 5 mM MgCl2, 1 mM TCEP) is added to 5 μL of the diluted compound in DMSO to obtain 12.5% DMSO. 4 μL per well of the 12.5% DMSO serial dilution compound solution is added to the assay plate.
The assay conditions are the following: 10 mM HEPES pH 7.5, 25 mM KCl, 7.5 mM NaCl, 5 mM MgCl2, 0.2 mg BSA/mL, 1 mM TCEP, 1.5% glycerol, 5% DMSO, 235 nM dATP, 350 nM dCTP, 350 nM dGTP, 235 nM dTTP, 12 nM biotin-16-dUTP, 23.5 nM Dig-primer/template, 2 nM GST-UL54. The assay volume is 10 μL. […]
A general note: Time-resolved FRET reads energy transfer from a long-lived donor to a nearby acceptor.

Setting [1] is: 2 nM GST-UL54, 37° C. for 30 min, 5% DMSO, read-out: Example 34 IC50.

T1 sequence (P08546 whole entry): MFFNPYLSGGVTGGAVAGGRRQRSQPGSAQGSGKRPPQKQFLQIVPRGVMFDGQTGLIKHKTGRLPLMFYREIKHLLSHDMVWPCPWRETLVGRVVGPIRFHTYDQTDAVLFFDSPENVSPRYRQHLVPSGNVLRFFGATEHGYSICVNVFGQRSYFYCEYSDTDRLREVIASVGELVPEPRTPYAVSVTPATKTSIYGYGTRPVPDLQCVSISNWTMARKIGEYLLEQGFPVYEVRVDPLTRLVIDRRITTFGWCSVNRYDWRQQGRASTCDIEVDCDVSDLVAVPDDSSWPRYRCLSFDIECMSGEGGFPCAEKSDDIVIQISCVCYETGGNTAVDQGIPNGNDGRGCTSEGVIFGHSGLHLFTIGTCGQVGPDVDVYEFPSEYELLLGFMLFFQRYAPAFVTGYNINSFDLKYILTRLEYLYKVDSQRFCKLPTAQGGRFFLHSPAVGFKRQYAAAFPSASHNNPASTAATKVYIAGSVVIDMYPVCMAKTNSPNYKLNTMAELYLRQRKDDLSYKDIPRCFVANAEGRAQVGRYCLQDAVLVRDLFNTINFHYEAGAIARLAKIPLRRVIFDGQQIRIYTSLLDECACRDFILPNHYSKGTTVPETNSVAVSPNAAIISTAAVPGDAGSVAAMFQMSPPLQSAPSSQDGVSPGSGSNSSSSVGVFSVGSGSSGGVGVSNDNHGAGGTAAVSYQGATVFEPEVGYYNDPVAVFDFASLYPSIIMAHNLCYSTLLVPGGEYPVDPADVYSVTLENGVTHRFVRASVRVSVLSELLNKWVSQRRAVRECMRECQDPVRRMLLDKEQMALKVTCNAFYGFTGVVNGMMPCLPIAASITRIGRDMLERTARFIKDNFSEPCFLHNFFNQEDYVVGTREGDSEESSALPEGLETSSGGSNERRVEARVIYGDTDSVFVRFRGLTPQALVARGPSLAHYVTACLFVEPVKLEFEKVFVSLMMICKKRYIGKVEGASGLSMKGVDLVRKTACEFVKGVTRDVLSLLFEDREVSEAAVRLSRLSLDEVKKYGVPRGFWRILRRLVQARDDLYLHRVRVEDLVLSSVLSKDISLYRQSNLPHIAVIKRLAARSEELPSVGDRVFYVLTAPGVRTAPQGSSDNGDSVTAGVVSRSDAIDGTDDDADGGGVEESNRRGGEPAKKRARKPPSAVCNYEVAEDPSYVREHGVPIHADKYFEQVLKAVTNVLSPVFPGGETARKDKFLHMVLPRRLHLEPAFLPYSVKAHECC

For the compound `Cc1nc2cnc3c(cc(C(=O)NCc4ccc(Cl)cc4)c(=O)n3CC(=O)N3CC(C)(F)C3)c2n1C` [Compound 1002], the pIC50 under setting [1] was 7.42.
Regarding `CCn1cnc2cnc3c(cc(C(=O)NCc4ccc(Cl)cc4)c(=O)n3CC(=O)N3CC(C)(F)C3)c21` [Compound 1004], the pIC50 under setting [1] was 7.59.
Regarding `Cc1nc2cnc3c(cc(C(=O)NCc4ccc(Cl)cc4)c(=O)n3CC(=O)N3CC(F)(CF)C3)c2n1C` [Compound 1007], the pIC50 under setting [1] was 7.32.
`Cn1cc(-c2nc3cnc4c(cc(C(=O)NCc5ccc(Cl)cc5)c(=O)n4CC(=O)N4CC(C)(F)C4)c3n2C)cn1` [Compound 1016]: the pIC50 under setting [1] is 7.13.
On the same count and under the same terms, the result for `CC1(F)CN(C(=O)Cn2c(=O)c(C(=O)NCc3ccc(Cl)cc3)cc3c4c(cnc32)ncn4CCO)C1` [Compound 1024] reads 7.54; that for `COCc1nc2cnc3c(cc(C(=O)NCc4ccc(Cl)cc4)c(=O)n3CC(=O)N3CC(C)(F)C3)c2n1C` [Compound 1031], 7.24.
Consider `Cn1c(N2CCCC2=O)nc2cnc3c(cc(C(=O)NCc4ccc(Cl)cc4)c(=O)n3CC(=O)N3CC(C)(F)C3)c21` [Compound 1038], for which, under setting [1], the pIC50 is 7.11.
Same read-out and setting: the value for `Cn1c(N2CCOCC2)nc2cnc3c(cc(C(=O)NCc4ccc(Cl)cc4)c(=O)n3CC(=O)N3CC(C)(F)C3)c21` [Compound 1056] was 6.96; that for `Cn1c(-n2ccnc2)nc2cnc3c(cc(C(=O)NCc4ccc(Cl)cc4)c(=O)n3CC(=O)N3CC(C)(F)C3)c21` [Compound 1061] was 7.22.
For the compound `Cc1nc2cnc3c(cc(C(=O)NCc4ccc(Cl)cc4)c(=O)n3CC(=O)N3CC(F)(CO)C3)c2n1C` [Compound 1065], under setting [1], the negative-log IC50 (pIC50) is 7.46.
Regarding `CN(C)Cc1nc2cnc3c(cc(C(=O)NCc4ccc(Cl)cc4)c(=O)n3CC(=O)N3CC(C)(C)C3)c2n1C` [Compound 1070], under setting [1], the pIC50 is 7.21.
On the same count and under the same terms, the result for `Cc1nc2cnc3c(cc(C(=O)NCc4ccc(Cl)cc4)c(=O)n3CC(=O)N3CC4(C3)NCC4(F)F)c2n1C` [Compound 1072] reads 6.59; that for `Cc1nc2cnc3c(cc(C(=O)NCc4ccc(Cl)cc4)c(=O)n3CC(=O)N(C)CC(C)(C)CO)c2n1C` [Compound 1073], 7.38; that for `COc1nc2cnc3c(cc(C(=O)NCc4ccc(Cl)cc4)c(=O)n3CC(=O)N3CC(C)(C#N)C3)c2n1C` [Compound 1074], 7.12.
For `CN(C)c1nc2c3cc(C(=O)NCc4ccc(Cl)cc4)c(=O)n(CC(=O)N4CC(C)(F)C4)c3ncc2n1C` [Compound 2017], the pIC50 under setting [1] is 6.68.
In the case of `Cc1nc2cnc3c(cc(C(=O)NCc4ccc(C#N)cc4)c(=O)n3CC(=O)N3CC(C)(F)C3)c2n1C` [Compound 3001], the pIC50 under setting [1] is 6.85.
Turning to `Cc1nc2c3cc(C(=O)NCc4ccc(C#N)cc4)c(=O)n(CC(=O)N4CC(C)C4)c3ncc2n1C` [Compound 4003], the pIC50 under setting [1] is 7.03.
The same measure, in the same setting: the result for `CC1(F)CN(C(=O)Cn2c(=O)c(C(=O)NCc3ccc(Cl)cc3)cc3c4c(cnc32)nc2n4CCOC2)C1` [Compound 5002] reads 7.16; that for `CC1(F)CN(C(=O)Cn2c(=O)c(C(=O)NCc3ccc(Cl)cc3)cc3c4nc5n(c4cnc32)CCC5)C1` [Compound 5004], 7.11; that for `Cn1c(=O)n(C)c2c3cc(C(=O)NCc4ccc(Cl)cc4)c(=O)n(CC(=O)N4CC(C)(F)C4)c3ncc21` [Compound 5006], 7.05.
As to `Cc1cn(C)c2c1cnc1c2cc(C(=O)NCc2ccc(Cl)cc2)c(=O)n1CC(=O)N1CC(C)C1` [Compound 5007], the pIC50 under setting [1] is 7.19.
Regarding `CC1(C)CN(C(=O)Cn2c(=O)c(C(=O)NCc3ccc(Cl)cc3)cc3c4c(cnc32)-c2ccccc2CO4)C1` [Compound 5012], the pIC50 under setting [1] was 6.80.
On the same count and under the same terms, the value for `Cn1cc(N2CCOc3c2cnc2c3cc(C(=O)NCc3ccc(Cl)cc3)c(=O)n2CC(=O)N2CC(C)(F)C2)cn1` [Compound 5015] was 6.70; that for `CC1(C)CN(C(=O)Cn2c(=O)c(C(=O)NCc3ccc(Cl)cc3)cc3c4c(cnc32)NCCN4)C1` [Compound 5021] was 6.48; that for `CC1(C)CN(C(=O)Cn2c(=O)c(C(=O)NCc3ccc(Cl)cc3)cc3c4c(cnc32)NC(C)(C)CO4)C1` [Compound 5022] was 6.34.
`COc1nc2c(cc(C(=O)NCc3ccc(Cl)cc3)c(=O)n2CC(=O)N2CC(C)(F)C2)c2c1nc(C)n2C` [Compound 5035]: the pIC50 under setting [1] is 6.62.
The same measure, in the same setting: the value for `Cc1nc2cnc3c(cc(C(=O)NCc4ccc(Cl)cc4)c(=O)n3CC(=O)N3CC(C)(F)C3)c2nc1C` [Compound 5037] was 6.36.
Turning to `Cc1cc(Cl)ccc1CNC(=O)c1cc2c3c(cnc2n(CC(=O)N2CC(C)(F)C2)c1=O)nc(C)n3C` [Compound 5038], the pIC50 is 6.85.
Consider `Cc1nc2cnc3c(cc(C(=O)NCc4ccc(Cl)c(O)c4)c(=O)n3CC(=O)N3CC(C)(F)C3)c2n1C` [Compound 5046], for which the negative logarithm of the IC50 (pIC50) under setting [1] was 6.72.
The same measure, in the same setting: the value for `COc1cc(CNC(=O)c2cc3c4c(cnc3n(CC(=O)N3CC(C)(F)C3)c2=O)nc(C)n4C)ccc1Cl` [Compound 5048] was 6.77.
